Test results published in patent publication EP2002836B1, “Cyclocondensed azaindoles active as kinase inhibitors” (Nerviano Medical Sciences S.r.l., priority 2007, dated 2008).

Biological target: T1, PKAα (Homo sapiens, UniProt P17612)
T1 construct: polyHis; made in house; host or cells: E. coli
Assay: FABS-NMR screening (3-FABS, 19F-labelled AKTide-like substrate) on PKA
Assay type: biochemical
Conditions: 25 nM protein, 30 µM substrate, 150 µM ATP
Protocol: The biochemical functional NMR screening on the proteins kinase AKT-1 and PKA was performed using the 3-FABS (3-Fluorine Atoms for Biochemical Screening) technique developed by C. Dalvit and the NMR group in house (C. Dalvit et al 2003 J. Am. Chem. Soc. 125 (47): 14620).
The method require the use of a ^19F-labelled substrate. The same commercial peptide was used as substrate in both enzymatic reaction: the Tyr just before the phosphorilation site in the AKTide peptide was mutated in a 3-tryfluormethyl-Phe by Bachem.
The AKTide like peptide sequence is reported below: • H-Ala-Arg-Lys-Arg-Glu-Arg-Ala-F(3-CF3)-Ser-Phe-Gly-His-His-Ala-OH
The active human Ser-Thr protein kinase AKT-1 Full Length was expressed as GST fusion protein in insect cells and then the GST was cleaved with PreScission protease. The active cycled AMP-dependent human protein kinase A PKA was expressed as polyHis-tag protein in E.Coli and purified by affinity column.
Reactions were performed in an end point format in eppendorf of 0.5 ml using the buffer solution 50mM Tris, pH 7.5, 5mM MgCl2, 1mM DTT, 8% D2O and 0.001% Triton-X-100; the final volume was of 560 µl. The substrate and protein concentration were of 30 µM and 25 nM respectively. The reactions were performed using an ATP concentration of about 9 times its KM: 150 µM in the test with PKA and 1.5 mM in the AKT-1 experiments. A sample in absence of inhibitor was run as control in order to follow the ongoing of the reaction and it represents the 0% inhibition. Different concentration compound stock solutions in DMSOd6 were made in order to add the same amount of DMSOd6 in each sample: usually the compounds stock were of 0.03, 0.2, 2, and 10 mM. 0.56 µl of these solution was added in each sample in order to reach the final compounds concentration of 30 nM, 200 nM 2 µM and 10 µM respectively; 0.56 µl of DMSOd6 was added in the control too. The reactions were quenched after about 100/120 minutes with 10 mM of Staurosporine (Sigma code:S4400), transferred into the 5 mm NMR tube (Cortec code: NE-MP5-8) and put onto the Sample Management System (SMS) autosampler for automatic data collection. The spectra were recorded using the Varian Inova 600 MHz NMR spectrometer operating at a ^19F Larmor frequency of 564 MHz and using a 5mm probe with the inner coil tuned to ^19F and the outer coil tuned to H. The data were recorded without proton decoupling with a spectral width of 12000 Hz, an acquisition time of 0.8s and a relaxation delay of 2.8s. Chemical shifts are referenced to trifluoroacetic acid.
IC50 determination was achieved by measuring the substrate signal as a function of the inhibitor concentration using one of the formulas below. […] IC50 data were analyzed with non-linear least squares methods in the Origin 5.0 software package.

| SMILES | IC50 [µM] |
| --- | --- |
| NC[C@H](Cc1ccccc1)NC(=O)C1=Cc2c[nH]c3nccc(c23)CC1 [Cpd. 1, N-[(1S)-2-amino-1-benzylethyl]-6,7-dihydro-2H-2,3-diazabenzo[cd]azulene-8-carboxamide] | 0.02 |
| CC(=O)N1CC(C(=O)N[C@H](CN)Cc2ccccc2)=Cc2c[nH]c3nccc1c23 [Cpd. 3, 6-acetyl-N-[(1S)-2-amino-1-benzylethyl]-6,7-dihydro-2H-2,3,6-triazabenzo[cd]azulene-8-carboxamide] | 0.075 |
| O=C(N[C@H](CN1CCCC1)c1ccccc1)C1=Cc2c[nH]c3nccc(c23)CC1 [Cpd. 6, N-[(1S)-1-phenyl-2-pyrrolidin-1-ylethyl]-6,7-dihydro-2H-2,3-diazabenzo[cd]azulene-8-carboxamide] | 0.062 |
| NC[C@H](Cc1ccccc1)NC(=O)C1=Cc2c[nH]c3nccc(c23)NC1 [compound 2, N-[(1S)-2-amino-1-benzylethyl]-6,7-dihydro-2H-2,3,6-triazabenzo[cd]azulene-8-carboxamide] | 0.01 |
